Assay results reported in patent US20220323471A1 (priority 2019, published 2022).
Where two headings read alike, the source gives them in different places.

What was measured:
[1] = system: endosomes and lysosomes of HT1080 cells; test: Acridine Orange fluorescence, endosomal/lysosomal acidification; assay type: cell-based, human; settings: 4 hours pre-incubation, DGP, diphyllin, 6DG 2, 1 or 0.1 μM, Bafilomycin 100 nM, NH4Cl 25 mM
Protocol: To determine whether DGP inhibited ZIKV infection by preventing the acidification of endosomes and lysosomes, Acridine Orange (AO) was used, a cell-permeable fluorescent dye marker that accumulates in low pH compartments such as endosomes and lysosomes.
HT1080 cells were pre-incubated for 4 hours with the Bafilomycin (FIG. 10A, 100 nM), NH4Cl (FIG. 10A, 25 mM), DGP (FIG. 10B: 2 μM, 1 μM, or 0.1 μM) diphyllin (FIG. 10C: 2 μM, 1 μM, or 0.1 μM), or 6DG (FIG. 10C: 2 μM, 1 μM, or 0.1 μM) to test whether DGP prevents endosomal/lysosomal acidification. After staining the cells with 1 μg/mL of AO, changes in fluorescence were measured using a Celesta flow cytometer on the PerCP-Cy5-5-A channel. A shift in the AO fluorescence is indicated with an arrow in FIGS. 10A-10D.
Acridine Orange (Invitrogen) staining was performed as described previously (Kanzawa, T. et al. 2004, “Role of autophagy in temozolomide-induced cytotoxicity for malignant glioma cells.” Cell Death Differ 11(4): 448-457). Cells were stained with 1 μg/mL AO in 10% FBS DMEM for 30 min at 37° C. and then collected by trypsinization. Changes in fluorescence were measured using a Celesta flow cytometer in the PerCP-Cy5-5-A channel.

ZIKV = settings: cited from earlier work
DENV1-RVP = assay type: cell-based, dengue virus; settings: VERO cells; DGP 1 μM; NH4Cl 20 mM
TBEV-RVP = assay type: cell-based, tick-borne encephalitis virus
WNV-RVP = assay type: cell-based, West Nile virus; settings: VERO cells; DGP 1 μM; NH4Cl 20 mM
JEV-RVP = assay type: cell-based, Japanese encephalitis virus; settings: VERO cells; DGP 1 μM; NH4Cl 20 mM
EBV RVP = assay type: cell-based, Ebola virus
Sendai Virus (SeV) = test: Sendai Virus infection and IFN-β production in CHME3 cells; assay type: cell-based; settings: SeV MOI 1 and 10, DGP 1 μM, NH4Cl 20 mM
Protocol: The Flaviviridae family of viruses encode a glycoprotein that is necessary to achieve fusion at the endosomal/lysosomal membranes, the step that releases viral components into the cytoplasm. […] Instead, SeV fuses at the plasma membrane. To this end, IFN-β production and viral infection were measured in CHME3 cells infected with SeV at an MOI 1 and 10 in the presence of DGP (1 μM) or 20 mM NH4Cl.
To detect viral copies of ZIKV and Sendai Virus (SeV) by qRT-PCR, cells were seeded in 24-well plates, with or without DGP treatment, and infected with the virus at the indicated MOI for 48 h. After the incubation period, total RNA from HT1080, VERO, and CHME3 cells was isolated and purified using Trizol (Invitrogen). For detection of ZIKV viral load in brain and spleen, 3 mice were sacrificed at 6 days post-infection and total RNA was extracted from the brain and spleen. For cDNA synthesis, 1 ng of total RNA was reverse transcribed. The reaction mixture included 1 mM of deoxyribonucleotide phosphates (dNTPs), 2 nM of the specific reverse primer of ZIKV or SeV, 1× M-MULV buffer, 10 U M-MuLV RT (BioLabs), and 2 U of RNase Inhibitor. The reaction mixture was incubated for 1 hour at 42° C. followed by 20 min at 65° C. to inactivate the enzyme. For actin detection, Oligo-dT was used to reverse transcribe total RNA.
ZIKV RNA levels were measured using real-time PCR. HT1080 and VERO cells were challenged by ZIKV MR766 at an MOI of 1 in the presence of DGP. At 48 hours post-challenge, cells were lysed and total RNA was extracted using trizol. Total RNA was used to determine the levels of ZIKV RNA by real-time PCR using specific primers against ZIKA. qRT-PCR was carried out using SYBR green in a 20-μl final volume using a MASTERCYCLER proS machine. The primers used to detect ZIKV were: SEQ ID NO. 1: 5′-TT […]-3′-Forward (Genome Position 941-964) and SEQ ID NO. 2: 5′-[…]-3′-Reverse (Genome position 1123-1103) (AY632535.2). For the detection of SeV, the following primers were used: SEQ ID NO. 3: 5′-[…]-3′-Forward (Genome position 210-233) and SEQ ID NO. 4: 5′-[…]-3′-Reverse (Genome position 332-307) (M30202. Genome position 210-332) (Wagner, A. M. et al. 2003, “Detection of sendai virus and pneumonia virus of mice by use of fluorogenic nuclease reverse transcriptase polymerase chain reaction analysis.” Comp Med 53(2): 173-177). For the detection of IFN-β the following primers were used: SEQ ID NO. 5: Forward 5-[…]-3′ (Genome position 644-668) and SEQ ID Na 6: Reverse 5′-[…]-3′ (Genome position 718-697) (NM_002176.2) and for actin detection: SEQ ID NO. 7: 5′-[…]-′3-Forward and SEQ ID NO. 8: 5′-[…]′3-Reverse. ZIKA viral RNA levels were normalized to actin (upper panels). […]

ZIKV strain MR766 = ZIKV strain MR766 infection, 4G2 antibody flow cytometry; settings: for IC50: Zika virus
[2] = system: HT1080, CHME3, VERO cells; test: MTT cell viability assay; assay type: cell-based, human and monkey; settings: human or monkey cells (HT1080, CHME3, VERO); 48 hours
Protocol: Cell viability was determined by measuring the reduction of the tetrazolium dye MTT [3-(4,5-dimethylthiazol-2-yl)-2,5-diphenyltetrazolium bromide] to its insoluble form formazan. We treated 4×10^3 cells/well in a 96-well plate with serial dilutions of the indicated drugs. Human and monkey cells were incubated with DGP, diphyllin, or 6-deoxy-D-glucose for 48 hours at 37° C. After the incubation period, 10 μl MTT solution (5 mg/mL) was added to each well for an additional 4 hours at 37° C. Finally, the media was removed and dimethyl sulfoxide was added (200 μl/well) according to the manufacturer's instructions. The optical density was measured at 570 nm using a microplate reader. Experiments were performed in triplicates and standard deviations are shown. Mock-treated cells represent 100% viability.

Question: Which “acidification of endosomes and lysosomes (AO fluorescence)” value (“acidification of endosomes and lysosomes” below) [1] does the source give for `C[C@@H](O)[C@@H](O)[C@H](O)[C@@H](O)C=O` [Formula 6DG, 6-deoxyglucose, reference compound] here?
Answer: did not prevent

Question: Which “required inhibitory concentrations for ZIKV in cell culture” value (ZIKV) does the source give for `CCN(CC)CCCC(C)Nc1ccnc2cc(Cl)ccc12` (stereo not shown) [chloroquine] here?
Answer: micromolar range

Question: Which “required inhibitory concentrations for ZIKV in cell culture” value (ZIKV) does the source give for `CCN(CCO)CCCC(C)Nc1ccnc2cc(Cl)ccc12` (stereo not shown) [hydroxychloroquine] here?
Answer: micromolar range

Question: For `Cl.N` [NH4Cl, ammonium chloride, reference compound], which “DENV1 RVP infection” value (DENV1-RVP) is on record?
Answer: inhibited infection

Question: And the “TBEV RVP infection” value (TBEV-RVP)?
Answer: inhibited infection

Question: And the “WNV RVP infection” value (WNV-RVP)?
Answer: inhibited infection

Question: And the “JEV RVP infection” value (JEV-RVP)?
Answer: inhibited infection

Question: What about the “EBV RVP infection” value (EBV RVP) of the same compound?
Answer: inhibited infection

Question: And the “IFN-β production in SeV-infected cells” value (Sendai Virus (SeV))?
Answer: increased induction

Question: And the “SeV infection / viral replication” value (Sendai Virus (SeV))?
Answer: increased viral replication

Question: What about the “acidification of endosomes and lysosomes” value [1] of the same compound?
Answer: prevent endosomal and lysosomal acidification

Question: What about the “percentage of 4G2-positive cells” value (ZIKV strain MR766; CHME3 cells, MOI 1, DGP 0.1 and 1 μM, NH4Cl 20 mM, 48 hours) of the same compound?
Answer: substantial decrease

Question: For `COc1cc2c(O)c3c(c(-c4ccc5c(c4)OCO5)c2cc1OC)C(=O)OC3` [diphyllin, Diphyllin], which “toxicity at concentrations required to inhibit ZIKV infection (MTT)” value [2] is on record?
Answer: not toxic

Question: What about the “acidification of endosomes and lysosomes” value [1] of the same compound?
Answer: prevented the acidification of endosomes and lysosomes but to a lesser extent

Question: What about the IC50 (ZIKV strain MR766; HT-1080, read-out: IC50, ZIKV infection) of the same compound?
Answer: 60 nM

Question: And the IC50 (ZIKV strain MR766; read-out: IC50, ZIKV infection)?
Answer: 210 nM
